From the supplement of paper PMC10307832

Legend:
Experiment in all cases: relative viability (nuclei count vs DMSO), 5 days (fraction); higher = more cells survive
[1] = compound: CC(C)C[C@@H](C(=O)N[C@H](C(=O)OC1CCCC1)c1ccccc1)[C@H](O)C(=O)NO [Tosedostat] + CC1(C)CCC(c2ccc(Cl)cc2)=C(CN2CCN(c3ccc(C(=O)NS(=O)(=O)c4ccc(N[C@H](CCN5CCOCC5)CSc5ccccc5)c(S(=O)(=O)C(F)(F)F)c4)cc3)CC2)C1 [Navitoclax] (partner 0.5 µM)
Procedure, shortened: (§1)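 Lung cancer cell lines were pin-tool dosed in 1536-well plates on the day after seeding, with either a lone drug or a fixed anchor-drug dose plus five library-drug doses (not always all listed) in √10 steps. Nuclei were counted on 4× images after 5 days. Relative viability is the ratio of treated-well to vehicle-well nuclei counts, with each value a median of duplicate plates.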

[2] = compound: CC1=NN=C(O1)C2=NN=C(C=C2)N3CCC(CC3)OC4=C(C=CC(=C4)F)Cl + N=C(N)NC(=N)NCCc1ccccc1 [Phenformin] (partner 250 µM)
Procedure, shortened: as §1

[3] = compound: CC1=NN=C(O1)C2=NN=C(C=C2)N3CCC(CC3)OC4=C(C=CC(=C4)F)Cl
Procedure, shortened: (§2)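 Lung cancer cell lines in 1536-well plates were exposed by pinning to five library-drug doses (not always all listed) √10 apart, following an overnight hold at 37 °C. MetaXpress counted Hoechst-stained nuclei from 4× images taken after 5 days without medium change. Viability is the median ratio of treated-well to vehicle-well nuclei across plates. Plates required control CV below 25% and at least one doubling.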

[4] = compound: CC(C)C[C@@H](C(=O)N[C@H](C(=O)OC1CCCC1)c1ccccc1)[C@H](O)C(=O)NO [Tosedostat]
Procedure, shortened: as §2

Row | Cell Line | relative viability ([1]; first compound 0.02 µM) | relative viability ([1]; first compound 0.06325 µM) | relative viability ([1]; first compound 0.2 µM) | relative viability ([1]; first compound 0.6325 µM) | relative viability ([1]; first compound 2 µM) | relative viability ([2]; first compound 0.253 µM) | relative viability ([2]; first compound 0.8 µM) | relative viability ([2]; first compound 2.53 µM) | relative viability ([2]; first compound 8 µM) | relative viability ([3]; 0.253 µM) | relative viability ([3]; 0.8 µM) | relative viability ([3]; 2.53 µM) | relative viability ([3]; 8 µM) | relative viability ([4]; 0.02 µM) | relative viability ([4]; 0.06325 µM) | relative viability ([4]; 0.2 µM) | relative viability ([4]; 0.6325 µM) | relative viability ([4]; 2 µM)
1 | CAL-12T | 1.27 | 1.13 | 1.19 | 1.16 | 0.965 | 0.585 | 0.519 | 0.488 | 0.416 | 0.935 | 0.859 | 0.821 | 0.742 | 1.16 | 0.948 | 1.03 | 0.892 | 0.784
2 | NCI-H1650 | 1.25 | 1.05 | 1.27 | 1.01 | 0.825 | – | 0.403 | 0.445 | 0.453 | – | 0.756 | 0.749 | 0.722 | 0.895 | 0.85 | 0.94 | 0.911 | 0.98
3 | NCI-H1703 | 0.89 | 0.945 | 0.898 | 0.635 | 0.691 | – | – | – | – | 0.786 | 0.873 | 0.933 | 0.829 | 0.995 | 0.789 | 0.763 | 0.572 | 0.726
4 | BEN | 0.35 | 0.0546 | 0.0614 | 0.0633 | 0.0537 | 0.25 | 0.265 | 0.267 | 0.301 | 0.895 | 0.959 | 0.974 | 0.821 | 1.01 | 1.03 | 1.09 | 1.3 | 1.2
5 | EMC-BAC-2 | 1.11 | 1.2 | 1.15 | 1.14 | 1.19 | 0.594 | 0.479 | 0.495 | 0.517 | 0.98 | 0.872 | 0.891 | 0.615 | 1.09 | 1.16 | 0.952 | 0.919 | 0.811
6 | LXF-289 | 0.965 | 0.879 | 0.938 | 0.897 | 0.958 | 0.509 | 0.393 | 0.504 | 0.465 | 0.712 | 0.616 | 0.737 | 0.653 | 1.08 | 0.987 | 0.992 | 0.993 | 1.05
7 | ABC-1 | – | – | – | – | – | 0.197 | 0.224 | 0.291 | 0.276 | 0.374 | 0.421 | 0.473 | 0.472 | 1.24 | 0.869 | 0.911 | 0.928 | 0.765
8 | EBC-1 | 0.42 | 0.473 | 0.423 | 0.356 | 0.305 | – | – | – | – | 0.663 | 0.735 | 0.81 | 0.606 | 0.994 | 0.934 | 0.946 | 0.785 | 0.683
9 | NCI-H2342 | – | – | – | – | – | 0.474 | 0.503 | 0.492 | 0.362 | 0.678 | 0.675 | 0.604 | 0.525 | 0.954 | 0.998 | 0.986 | 0.944 | 0.94
10 | NCI-H661 | – | – | – | – | – | 0.282 | 0.308 | 0.244 | 0.277 | 0.859 | 0.816 | 0.731 | 0.71 | 1.01 | 0.991 | 0.948 | 0.926 | 0.934
11 | NCI-H358 | – | – | – | – | – | 0.369 | 0.304 | 0.359 | 0.305 | 0.628 | 0.563 | 0.589 | 0.49 | 1.11 | 0.866 | 0.782 | 0.452 | 0.425
12 | NCI-H1299 | 1.09 | 1.03 | 1.04 | 1.02 | 0.948 | – | – | – | – | 0.961 | 0.9 | 0.892 | 0.852 | 1.09 | 0.995 | 0.985 | 0.968 | 0.939
13 | SW 900 | – | – | – | – | – | – | – | 0.827 | 0.562 | – | 0.545 | 0.805 | 0.574 | 0.887 | 0.952 | 0.855 | 0.767 | 0.669
14 | IA-LM | 0.731 | 0.655 | 0.875 | 0.585 | 0.603 | – | – | – | – | 0.169 | 0.142 | 0.171 | 0.155 | 1.07 | 0.963 | 0.918 | 0.858 | 0.769
15 | NCI-H650 | – | – | – | – | – | 0.478 | 0.444 | 0.43 | 0.414 | 0.927 | 0.72 | 0.865 | 0.71 | 1.07 | 0.988 | 0.731 | 0.787 | 0.789
16 | LCLC-103H | – | – | – | – | – | 0.36 | 0.344 | 0.335 | 0.225 | 0.604 | 0.71 | 0.705 | 0.632 | 1.06 | 0.95 | 1 | 1.11 | 1.07
17 | NCI-H1563 | – | – | – | – | – | 0.646 | 0.659 | 0.612 | 0.641 | 0.986 | 0.954 | 0.995 | 0.993 | 1.03 | 1.07 | 1.05 | 1.13 | 1.08
18 | NCI-H1648 | – | – | – | – | – | – | – | – | – | 0.435 | 0.462 | 0.56 | 0.496 | 1.01 | 0.923 | 0.881 | 0.935 | 0.578
